# Assay results published in US8252723B2, “Substituted 1-(3-pyridinyl)pyrazol-4-ylacetic acids, processes for their preparation and their use as herbicides and plant growth regulators” (Bayer CropScience AG, priority 2006, dated 2012).
# Legend:
# [1] = test system: weed plants such as Lolium multiflorum, Amaranthus retroflexus, Sinapis alba, Stellaria media and Setaria viridis; assay: Pre-emergence effect on weeds (greenhouse pot test, visual scoring); format: in vivo; settings: pre-emergence method, application rate of 1 kg or less of active substance per hectare, visual scoring after 3 to 4 weeks vs untreated controls; read-out: herbicidal action (control)
# From the text: Seeds or sections of rhizome from monocotyledonous and dicotyledonous weed plants were laid out in sandy loam soil in plastic pots, and covered with soil. The compounds according to the invention, formulated as wettable powders or emulsifiable concentrates, were then applied, in the form of aqueous suspensions or emulsions, at various dosages, onto the surface of the covering soil, at an application rate of 600 to 800 l of water/ha (converted).
# [2] = test system: weed plants such as Lolium multiflorum, Amaranthus retroflexus, Sinapis alba, Stellaria media and Setaria viridis; assay: Post-emergence effect on weeds (greenhouse pot test, visual scoring); format: in vivo; settings: application rate of 500 g or less of active substance per hectare, visual scoring after about 3 to 4 weeks vs untreated controls, read-out: herbicidal action (control)
# [3] = test system: summer wheat of the cultivar 'Triso'; assay: Plant growth regulation test: culm stabilization of crop plants; format: in vivo; settings: application rate of 30 to 300 g of active substance per hectare, treated at stage BBCH 31, culm length measured after ears had formed
# Outline: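 Wettable-powder formulation with adjuvant (1 l/ha) sprayed at 300 l water/ha onto pot-grown plants at BBCH 31, then kept outdoors. After ear formation culm length was measured; culm stabilization is expressed as percent of untreated control.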
SMILES,pest or weed control at up to 1000 g/ha [1],pest or weed control at up to 500 g/ha [2],longitudinal growth (culm length) of summer wheat [3],melting point
"C#CCOC(=O)Cc1c(C)nn(-c2cnccc2C)c1-c1ccccc1 [Example 3-76, Prop-2-yn-1-yl [3-methyl-1-(4-methylpyridin-3-yl)-5-phenyl-1H-pyrazol-4-yl]acetate]",≥ 70%,≥ 70%,effectively shortened,–
"Cc1ccncc1-n1nc(C)c(CC(=O)OCC2CC2)c1-c1ccccc1 [Example 3-99, Cyclopropylmethyl [3-methyl-1-(4-methylpyridin-3-yl)-5-phenyl-1H-pyrazol-4-yl]acetate]",≥ 70%,≥ 70%,effectively shortened,–
"COC(=O)Cc1c(C)nn(-c2cnccc2C)c1-c1ccccc1 [Example 2-10, Methyl [3-methyl-1-(4-methylpyridin-3-yl)-5-phenyl-1H-pyrazol-4-yl]acetate]",≥ 70%,≥ 70%,effectively shortened,–
"Cc1nn(-c2cccnc2)c(-c2ccccc2)c1CC(=O)O [Example 1-2, 3-methyl-5-phenyl-1-(3-pyridyl)pyrazole-4-acetic acid]",≥ 70%,≥ 70%,effectively shortened,192 °C
"O=C(O)Cc1c(-c2ccccc2)nn(-c2cccnc2)c1-c1ccccc1 [Example 1-1, 3,5-diphenyl-1-(3-pyridyl)pyrazole-4-acetic acid]",≥ 70%,≥ 70%,effectively shortened,172 °C
Cc1nn(-c2cccnc2)c(-c2ccccc2)c1CC(=O)OC(C)C1CC1 (stereo not shown) [Example 3-144],–,–,effectively shortened,–
COC(=O)Cc1c(C)nn(-c2cccnc2)c1-c1ccc(Cl)c(C(F)(F)F)c1 [Example 2-47],–,–,effectively shortened,–
COC(=O)Cc1c(C)nn(-c2cccnc2)c1-c1cccnc1 [Example 2-125],–,–,effectively shortened,–
COC(=O)Cc1c(C)nn(-c2cnccc2C)c1-c1ccc(C(C)(C)C)cc1 [Example 2-32],–,–,effectively shortened,–
C#CCOC(=O)Cc1c(C)nn(-c2cccnc2)c1-c1ccccc1 [Example 3-54],–,–,effectively shortened,–
Cc1nn(-c2cccnc2)c(-c2ccc(Cl)cc2)c1CC(=O)OCC1(C)COC1 [Example 3-233],–,–,effectively shortened,–
"Cc1ccncc1-n1nc(C)c(CC(=O)O)c1-c1ccccc1 [Example 1-10, [3-Methyl-1-(4-methylpyridin-3-yl)-5-phenyl-1H-pyrazol-4-yl]acetic acid]",≥ 70%,≥ 70%,effectively shortened,–
Cc1cncc(-n2nc(C)c(CC(=O)O)c2-c2ccccc2)c1 [Example 1-50],–,–,effectively shortened,–
Cc1nn(-c2cccnc2)c(-c2ccccc2)c1CC(=O)OCC1CCC1 [Example 3-168],–,–,effectively shortened,–
Cc1nn(-c2cnccc2Cl)c(-c2ccc(Cl)cc2)c1CC(=O)O [Example 1-29],–,–,effectively shortened,–
C=C(Cl)COC(=O)Cc1c(C)nn(-c2cccnc2)c1-c1cccs1 [Example 3-186],–,–,effectively shortened,–
C#CCOC(=O)Cc1c(C)nn(-c2cccnc2)c1-c1ccncc1 [Example 3-74],–,–,effectively shortened,–
COC(=O)Cc1c(C)nn(-c2cnccc2C)c1-c1cccc(Br)c1 [Example 2-40],–,–,effectively shortened,–
"COC(=O)Cc1c(C)nn(-c2cccnc2)c1-c1cccc(Cl)c1 [Example 2-17, Methyl [5-(3-chlorophenyl)-3-methyl-1-pyridin-3-yl-1H-pyrazol-4-yl]acetate]",≥ 70%,≥ 70%,effectively shortened,–

SMILES,pest or weed control at up to 1000 g/ha [1],pest or weed control at up to 500 g/ha [2],longitudinal growth (culm length) of summer wheat [3],melting point
COC(=O)Cc1c(C)nn(-c2cccnc2)c1-c1ccc(OC)cc1 [Example 2-14],–,–,effectively shortened,–
COC(=O)Cc1c(C)nn(-c2cnccc2C)c1-c1cc(C)cc(C)c1 [Example 2-33],–,–,effectively shortened,–
COC(=O)Cc1c(C)nn(-c2cnccc2C(F)(F)F)c1-c1ccccc1 [Example 2-8],–,–,effectively shortened,–
COC(=O)Cc1c(C)nn(-c2cccnc2)c1-c1ccc(Cl)cn1 [Example 2-110],–,–,effectively shortened,–
Cc1ccncc1-n1nc(C)c(CC(=O)O)c1-c1ccc(Cl)c(Cl)c1 [Example 1-20],–,–,effectively shortened,–
"Cc1nn(-c2cccnc2)c(-c2cccc(Cl)c2)c1CC(=O)O [Example 1-17, [5-(3-Chlorophenyl)-3-methyl-1-pyridin-3-yl-1H-pyrazol-4-yl]acetic acid]",≥ 70%,≥ 70%,effectively shortened,–
Cc1ccncc1-n1nc(C)c(CC(=O)O)c1-c1cccc(Br)c1 [Example 1-40],–,–,effectively shortened,–
Cc1nn(-c2cccnc2)c(-c2ccc(C(F)(F)F)cc2)c1CC(=O)O [Example 1-28],–,–,effectively shortened,–
C#CC(C)OC(=O)Cc1c(C)nn(-c2cccnc2)c1-c1ccccc1 (stereo not shown) [Example 3-140],–,–,effectively shortened,–
COC(=O)Cc1c(C)nn(-c2ccc(C)nc2C)c1-c1ccccc1 [Example 2-11],–,–,effectively shortened,–
COc1ccncc1-n1nc(C)c(CC(=O)O)c1-c1ccccc1 [Example 1-34],–,–,effectively shortened,–
COC(=O)Cc1c(C)nn(-c2cncc(C)c2)c1-c1ccc(Cl)cc1 [Example 2-51],–,–,effectively shortened,–
COC(=O)Cc1c(C)nn(-c2cccnc2)c1-c1ccc(Cl)cc1 [Example 2-26],–,–,effectively shortened,–
C=C(C)COC(=O)Cc1c(C)nn(-c2cccnc2)c1-c1ccccc1 [Example 3-156],–,–,effectively shortened,–
COC(=O)Cc1c(C)nn(-c2cccnc2C)c1-c1ccccc1 [Example 2-135],–,–,effectively shortened,–
COC(=O)Cc1c(C)nn(-c2ccc(Cl)nc2)c1-c1ccccc1 [Example 2-7],–,–,effectively shortened,–
C=C(Cl)COC(=O)Cc1c(C)nn(-c2cccnc2)c1-c1ccccn1 [Example 3-203],–,–,effectively shortened,–
Cc1nn(-c2cccnc2)c(-c2ccccc2)c1CC(=O)OCC#CCCl [Example 3-109],–,–,effectively shortened,–
